Laboratory results taken from patent publication US20160102365A1, “ASSAYS, METHODS AND KITS FOR ANALYZING SENSITIVITY AND RESISTANCE TO ANTI-CANCER DRUGS, PREDICTING A CANCER PATIENT'S PROGNOSIS, AND PERSONALIZED TREATMENT STRATEGIES” (UNIVERSITY OF MIAMI, priority 2013, published 2016).

Legend:
Assay type in all cases: cell-based, human
OCI ovarian tumor lines = test: Panel of oncology drugs: viable cells by Alamar Blue, OCI versus ATCC ovarian tumor lines; details: 5000 cells/well, WIT-OC medium, serial dilutions, 72-144 hrs incubation
Protocol: In these experiments, ATCC ovarian tumor lines (SKOV3, OV90, TOV-1120 and A2780) and OCI ovarian tumor lines (FCI-P2p, OCI-P5x, OCI-P2a, OCI-C4p, OCI-P7a, OCI-05x, OCI-CSp, FCI-P1p, OCI-P9a1, OCI-P8p, OCI-P3a, OCI-P1a) were plated in WIT-OC medium (5000 cells/well) in 96 well plates. The next day serial dilutions of Taxol, Vincristine, U0126, PJ34, Adriamycin, AS703026, 5-fluorouracil, Cisplatin, PLX4720 and PJ34 were added. The number of viable cells was measured as 590/530 florescence via Alamar Blue after 72-144 hrs incubation, depending on drug. […] Thus, the methods described herein of analyzing sensitivity of a subject's cancerous tumor to an oncology drug and developing a personalized therapy for the subject can be used for any drug.

OCI and SOC cell lines = test: Drug sensitivity experiments, response compared between OCI and SOC lines in WIT-OC medium
Protocol: (§1) Drug sensitivity experiments: The relative sensitivities of OCI and SOC cell lines to chemotherapy drugs was measured by seeding an equal number of cells in six replicates in 96-well black-walled clear bottom Corning plates at 3000 cells/well, and allowing attachment in WIT-OC for 12 h. Both OCI and SOC cell lines were exposed to drugs in WIT-OC medium. The cell lines were cultured in the presence of drug or vehicle control for 96 h. The fraction of metabolically active cells after drug treatment was measured by incubation with 2:10 (v/v) CellTiter-Blue reagent (Promega Cat#G8081) in media for 2 h, and the reaction was stopped by addition of 3% SDS. Fluorescence was measured in a SpectraMax M5 plate reader (Molecular Devices, CA) using SoftMax software (555EX/585EM).

[1] = tested on: OCI lines in mRNA/RPPA Cluster 1; test: Taxol drug sensitivity (metabolic activity / viability) of OCI lines in mRNA/RPPA Cluster 1 compared to SOC lines
Protocol: FIG. 2: Gene expression profiling and Taxol Response of ovarian cancer cell lines identifies two major classes. A) Taxol response of OCI and SOC cell lines in mRNA/RPPA (Reverse Phase Protein Analysis) Cluster 1 vs. Cluster 2. The OCI and SOC lines were plated in triplicates in WIT-OC medium (5000 cells/well) in 96 well plates. The next day 20 nM Taxol was added and metabolic activity was measured as 590/530 fluorescence via Alamar Blue after 5 days. OCI cell lines in mRNA/RPPA Cluster 1 (blue bars), SOC cell lines in Cluster 2 (red bars), OCI lines in Cluster 2 (white bars). The results are representative of more than three four different experiments. B) Proteins that are over-expressed in OCI mRNA/RPPA Cluster 1. […] The data are presented in matrix format in which rows represent cell lines and columns represent antibody probes for each protein. The red and green colors reflect relative high and low expression levels respectively. C) Hierarchical clustering of mRNA data from OCI and SOC lines. […]
as §1, with “Both OCI and SOC cell lines were exposed to drugs in WIT-OC medium. The cell lines were cultured in the presence of drug or vehicle control for 96 h.” left out
Drug sensitivity experiments: The relative sensitivities of OCI and SOC cell lines to Taxol was measured by seeding 3000 cells/well in six replicates in 96-well black-walled clear bottom Corning plates and allowing attachment in WIT-OC for 12 h. […] The fraction of metabolically active cells after drug treatment was measured by incubation with 2:10 (v/v) CellTiter-Blue reagent (Promega Cat#G8081) in media for 2 h, and the reaction was stopped by addition of 3% SDS. […]

OCI lines in Cluster 2 = test: Taxol drug sensitivity of the subset of OCI lines in Cluster 2; details: WIT-OC medium; similar to SOC lines
Protocol: FIG. 2: Gene expression profiling and Taxol Response of ovarian cancer cell lines identifies two major classes. A) Taxol response of OCI and SOC cell lines in mRNA/RPPA (Reverse Phase Protein Analysis) Cluster 1 vs. Cluster 2. The OCI and SOC lines were plated in triplicates in WIT-OC medium (5000 cells/well) in 96 well plates. The next day 20 nM Taxol was added and metabolic activity was measured as 590/530 fluorescence via Alamar Blue after 5 days. OCI cell lines in mRNA/RPPA Cluster 1 (blue bars), SOC cell lines in Cluster 2 (red bars), OCI lines in Cluster 2 (white bars). The results are representative of more than three four different experiments. B) Proteins that are over-expressed in OCI mRNA/RPPA Cluster 1. […]
as §1, with “Both OCI and SOC cell lines were exposed to drugs in WIT-OC medium. The cell lines were cultured in the presence of drug or vehicle control for 96 h.” left out, “(555EX/585EM). […]” for “(555EX/585EM).”

With `O=c1[nH]cc(F)c(=O)[nH]1` [5-fluorouracil] as the molecule, how does the “Resistance of OCI lines to inhibition of cell proliferation compared to standard (ATCC) cell lines” value (OCI ovarian tumor lines) read?
The value was “more resistant”.

`N.N.[Cl][Pt][Cl]` [Cisplatin] was tested. Which “Difference in drug response between OCI and SOC lines” value (OCI and SOC cell lines) did it give?
Its value is “did not find a significant difference”.

With `CC(=O)O[C@H]1C(=O)[C@@]2(C)[C@H]([C@H](OC(=O)c3ccccc3)[C@]3(O)C[C@H](OC(=O)[C@H](O)[C@@H](NC(=O)c4ccccc4)c4ccccc4)C(C)=C1C3(C)C)[C@]1(OC(C)=O)CO[C@@H]1C[C@@H]2O` [Taxol] as the molecule, how does the IC50 ([1]; Homo sapiens, OCI lines plated in WIT-OC medium) read?
The IC50 was 10 to 100 nM.

What about the “IC50 fold higher than the IC50 values in SOC lines in mRNA/RPPA Cluster 2” value ([1]; OCI Cluster 1 vs SOC Cluster 2, WIT-OC medium) of the same molecule?
The value was 5-10 fold.

What about the “Sensitivity to Taxol of OCI lines in Cluster 1 relative to SOC lines in Cluster 2” value ([1]; WIT-OC medium, confirmed with a full dose-response curve) of the same molecule?
The value was “less sensitive”.

What about the “Sensitivity to Taxol of OCI lines in Cluster 2 compared to OCI lines in Cluster 1” value (OCI lines in Cluster 2) of the same molecule?
Its value is “more sensitive”.

`CN(C)CC(=O)Nc1ccc2[nH]c(=O)c3ccccc3c2c1` [PJ34] was tested. Which “Resistance of OCI lines to inhibition of cell proliferation compared to standard (ATCC) cell lines” value (OCI ovarian tumor lines) did it give?
Its value is “more resistant”.

For `N#CC(=C(/N)Sc1ccccc1N)/C(C#N)=C(\N)Sc1ccccc1N` [U0126], which “Resistance of OCI lines to inhibition of cell proliferation compared to standard (ATCC) cell lines” value (OCI ovarian tumor lines) is on record?
Its value is “more resistant”.

`CC[C@]1(O)C[C@H]2CN(CCc3c([nH]c4ccccc34)[C@@](C(=O)OC)(c3cc4c(cc3OC)N(C=O)[C@H]3[C@@](O)(C(=O)OC)[C@H](OC(C)=O)[C@]5(CC)C=CCN6CC[C@]43[C@@H]65)C2)C1` [Vincristine] was tested. Which “Difference in drug response between OCI and SOC lines” value (OCI and SOC cell lines) did it give?
Its value is “similarly different”.

`COc1cccc2c1C(=O)c1c(O)c3c(c(O)c1C2=O)C[C@@](O)(C(=O)CO)C[C@@H]3O[C@H]1C[C@H](N)[C@H](O)[C@H](C)O1` [Adriamycin] was tested. Which “Resistance of OCI lines to inhibition of cell proliferation compared to standard (ATCC) cell lines” value (OCI ovarian tumor lines) did it give?
The value was “more resistant”.
